In patent publication US20160223562A1, “Method for Determining the Concentration of a Peptide” (JPT Peptide Technologies GmbH, priority 2010, published 2016):
Square brackets hold non-standard residues; d marks the D form. Peptide text beside a SMILES is read from it. Tyr(3-NO2) = N[C@@H](Cc1ccc(O)c([N+](=O)[O-])c1)C(=O)O

Key:
[1] = molecular target: T1, Trypsin (Sus scrofa, UniProt P00761); test: Trypsin cleavage of N-terminal quantification tag Ac-nitroTyr-SGK- from peptides, LC-MS with UV detection at 350 nm; assay type: biochemical; details: for Kusebauch 24 h, RT: Percent Cleavage of Tag [by UV350 - Peptide-Tag vs. Tag]: trypsin protocol of example 9, 24 h; for cleavage efficiency in words: trypsin
T1 construct: purchased Promega Corporation V511
Description: (§1) Trypsin Activation: Trypsin (20 μg, sequencing grade modified trypsin, Promega Corporation, Madison, Wis., USA, catalogue no. V511, specific activity 16.965 u/mg) was dissolved in Trypsin resuspension buffer (200 μL, Promega, catalogue no. V542A, ingredient 50 mM acetic acid) and incubated for 15 min at 37° C.
(§2) Reduction and alkylation: The peptide (approx. 0.05 mg) was dissolved in 1 M urea and 100 mM fresh ammonium hydrogen carbonate (300 μL). TCEP (Tris(2-carboxyethyl) phosphine hydrochloride, 0.2 M, 7.5 μL, final concentration 5 mM) was added and the solution incubated at 37° C. for 1 h. After addition of iodoacetamide (0.5 M, 6.0 μL, final concentration 10 mM) the solution was incubated at RT in the dark for another 30 min. Digestion: The sample was digested with activated Trypsin solution (10 μL per well, 1.0 μg, resulting enzyme/substrate ratio 1:50) over night at RT. To stop the digestion, HCl (2 M, 8 μL final concentration 50 mM) and TFA (3.2 μL, final concentration 1%, pH<2) were added. Finally, the sample was analyzed by LC-MS at 350 nm.
38 peptides carrying the N-terminal quantification-tag Ac-nitroTyr-SGK-(SEQ ID NO:32) were synthesized by SPOT synthesis (Table 3). The peptide sequences are based on two different amino acid sequences, which in each case contain 19 different amino acids N-terminally attached to lysine (the 20 naturally occurring amino acids except cysteine).
All peptides were subjected to the same trypsin cleavage protocol as described in example 9. It is apparent that the quantification tag is efficiently cleaved (>99%) in nearly all cases.

[2] = molecular target: T1, Trypsin; test: Trypsin cleavage of C-terminal quantification tag -SA-nitroTyr-G from peptides, LC-MS with UV detection at 350 nm; assay type: biochemical; details: for Percent Cleavage of Tag [by UV at 350 nm]: after reduction and alkylation, trypsin enzyme/substrate 1:50 over night at RT
Description: 23 peptides carrying the C-terminal quantification-tag-SA-nitroTyr-G-OH (SEQ ID NO:2) were synthesized by Fmoc-based solid phase peptide synthesis and purified by HPLC. Each peptide was subjected to the following trypsin cleavage protocol:
as §1, §2

T1 sequence (P00761 9-231): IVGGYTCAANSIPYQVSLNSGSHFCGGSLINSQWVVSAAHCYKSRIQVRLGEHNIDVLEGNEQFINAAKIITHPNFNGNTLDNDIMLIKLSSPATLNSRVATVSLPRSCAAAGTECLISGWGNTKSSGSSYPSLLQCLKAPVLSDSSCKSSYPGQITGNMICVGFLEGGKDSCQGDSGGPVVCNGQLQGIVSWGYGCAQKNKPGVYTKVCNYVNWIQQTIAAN

SMILES	Kusebauch 24 h, RT: Percent Cleavage of Tag [by UV350 - Peptide-Tag vs. Tag] [1]	Percent Cleavage of Tag [by UV at 350 nm] [2]	cleavage efficiency in words [1]	cleavage efficiency (LC-MS and UV detection at 350 nm) ([2]; trypsin over night at RT)
CC[C@H](C)[C@H](NC(=O)[C@H](Cc1ccccc1)NC(=O)[C@H](Cc1ccc(O)cc1)NC(=O)[C@H](Cc1c[nH]cn1)NC(=O)[C@@H](NC(=O)[C@H](CC(N)=O)NC(=O)[C@H](CCCCN)NC(=O)CNC(=O)[C@H](CO)NC(=O)[C@H](Cc1ccc(O)c([N+](=O)[O-])c1)NC(C)=O)[C@@H](C)O)C(=O)N[C@@H](CC(=O)O)C(=O)N[C@@H](CC(C)C)C(=O)N[C@@H](CC(N)=O)C(=O)N[C@@H](CCCCN)C(=O)O [Peptide 12, Ac-nitroTyr-SGKNTHYFIDLN-K-OH] (Ac-[Tyr(3-NO2)]SGKNTHYFIDLNK-OH)	100.0%	100%	–	–
CC[C@H](C)[C@H](NC(=O)[C@H](Cc1ccccc1)NC(=O)[C@H](Cc1ccc(O)cc1)NC(=O)[C@H](Cc1c[nH]cn1)NC(=O)[C@@H](NC(=O)[C@H](CCC(N)=O)NC(=O)[C@H](CCCCN)NC(=O)CNC(=O)[C@H](CO)NC(=O)[C@H](Cc1ccc(O)c([N+](=O)[O-])c1)NC(C)=O)[C@@H](C)O)C(=O)N[C@@H](CC(=O)O)C(=O)N[C@@H](CC(C)C)C(=O)N[C@@H](CC(N)=O)C(=O)N[C@@H](CCCCN)C(=O)O [Peptide 14, Ac-nitroTyr-SGKQTHYFIDLN-K-OH] (Ac-[Tyr(3-NO2)]SGKQTHYFIDLNK-OH)	100.0%	99.6%	–	–
CC[C@H](C)[C@H](NC(=O)[C@H](Cc1ccccc1)NC(=O)[C@H](Cc1ccc(O)cc1)NC(=O)[C@H](Cc1c[nH]cn1)NC(=O)[C@@H](NC(=O)[C@H](CCCNC(=N)N)NC(=O)[C@H](CCCCN)NC(=O)CNC(=O)[C@H](CO)NC(=O)[C@H](Cc1ccc(O)c([N+](=O)[O-])c1)NC(C)=O)[C@@H](C)O)C(=O)N[C@@H](CC(=O)O)C(=O)N[C@@H](CC(C)C)C(=O)N[C@@H](CC(N)=O)C(=O)N[C@@H](CCCCN)C(=O)O [Peptide 15, Ac-nitroTyr-SGKRTHYFIDLN-K-OH] (Ac-[Tyr(3-NO2)]SGKRTHYFIDLNK-OH)	100.0%	100%	good cleavage efficiencies	–
CC[C@H](C)[C@H](NC(=O)[C@H](Cc1ccccc1)NC(=O)[C@H](Cc1ccc(O)cc1)NC(=O)[C@H](Cc1c[nH]cn1)NC(=O)[C@@H](NC(=O)[C@H](Cc1c[nH]c2ccccc12)NC(=O)[C@H](CCCCN)NC(=O)CNC(=O)[C@H](CO)NC(=O)[C@H](Cc1ccc(O)c([N+](=O)[O-])c1)NC(C)=O)[C@@H](C)O)C(=O)N[C@@H](CC(=O)O)C(=O)N[C@@H](CC(C)C)C(=O)N[C@@H](CC(N)=O)C(=O)N[C@@H](CCCCN)C(=O)O [Peptide 19, Ac-nitroTyr-SGKWTHYFIDLN-K-OH] (Ac-[Tyr(3-NO2)]SGKWTHYFIDLNK-OH)	100.0%	100%	–	–
CC[C@H](C)[C@H](NC(=O)[C@H](Cc1ccccc1)NC(=O)[C@H](Cc1ccc(O)cc1)NC(=O)[C@H](Cc1c[nH]cn1)NC(=O)[C@@H](NC(=O)[C@H](Cc1ccc(O)cc1)NC(=O)[C@H](CCCCN)NC(=O)CNC(=O)[C@H](CO)NC(=O)[C@H](Cc1ccc(O)c([N+](=O)[O-])c1)NC(C)=O)[C@@H](C)O)C(=O)N[C@@H](CC(=O)O)C(=O)N[C@@H](CC(C)C)C(=O)N[C@@H](CC(N)=O)C(=O)N[C@@H](CCCCN)C(=O)O [Peptide 20, Ac-nitroTyr-SGKYTHYFIDLN-K-OH] (Ac-[Tyr(3-NO2)]SGKYTHYFIDLNK-OH)	100.0%	74.7%	–	75%
CC(=O)N[C@@H](Cc1ccc(O)c([N+](=O)[O-])c1)C(=O)N[C@@H](CO)C(=O)NCC(=O)N[C@@H](CCCCN)C(=O)N[C@@H](C)C(=O)N[C@H](C(=O)N[C@@H](C)C(=O)N[C@@H](CC(C)C)C(=O)N[C@@H](CO)C(=O)N[C@@H](CC(C)C)C(=O)N[C@@H](CC(=O)O)C(=O)N[C@@H](CC(=O)O)C(=O)N[C@H](C(=O)N[C@@H](CCCCN)C(=O)O)C(C)C)C(C)C [Peptide 21, Ac-nitroTyr-SGKAVALSLDDV-K-OH] (Ac-[Tyr(3-NO2)]SGKAVALSLDDVK-OH)	100.0%	100%	–	–

The next lines start with the values.

Kusebauch 24 h, RT: Percent Cleavage of Tag [by UV350 - Peptide-Tag vs. Tag] [1]	Percent Cleavage of Tag [by UV at 350 nm] [2]	cleavage efficiency in words [1]	cleavage efficiency (LC-MS and UV detection at 350 nm) ([2]; trypsin over night at RT)	SMILES
37.0%	99.4%	not efficiently cleaved	–	CC[C@H](C)[C@H](NC(=O)[C@H](Cc1ccccc1)NC(=O)[C@H](Cc1ccc(O)cc1)NC(=O)[C@H](Cc1c[nH]cn1)NC(=O)[C@@H](NC(=O)[C@@H]1CCCN1C(=O)[C@H](CCCCN)NC(=O)CNC(=O)[C@H](CO)NC(=O)[C@H](Cc1ccc(O)c([N+](=O)[O-])c1)NC(C)=O)[C@@H](C)O)C(=O)N[C@@H](CC(=O)O)C(=O)N[C@@H](CC(C)C)C(=O)N[C@@H](CC(N)=O)C(=O)N[C@@H](CCCCN)C(=O)O [Peptide 13, Ac-nitroTyr-SGKPTHYFIDLN-K-OH] (Ac-[Tyr(3-NO2)]SGKPTHYFIDLNK-OH)
100.0%	100%	–	–	CC[C@H](C)[C@H](NC(=O)[C@H](Cc1ccccc1)NC(=O)[C@H](Cc1ccc(O)cc1)NC(=O)[C@H](Cc1c[nH]cn1)NC(=O)[C@@H](NC(=O)[C@H](CO)NC(=O)[C@H](CCCCN)NC(=O)CNC(=O)[C@H](CO)NC(=O)[C@H](Cc1ccc(O)c([N+](=O)[O-])c1)NC(C)=O)[C@@H](C)O)C(=O)N[C@@H](CC(=O)O)C(=O)N[C@@H](CC(C)C)C(=O)N[C@@H](CC(N)=O)C(=O)N[C@@H](CCCCN)C(=O)O [Peptide 16, Ac-nitroTyr-SGKSTHYFIDLN-K-OH] (Ac-[Tyr(3-NO2)]SGKSTHYFIDLNK-OH)
100.0%	100%	–	–	CC[C@H](C)[C@H](NC(=O)[C@H](Cc1ccccc1)NC(=O)[C@H](Cc1ccc(O)cc1)NC(=O)[C@H](Cc1c[nH]cn1)NC(=O)[C@@H](NC(=O)[C@@H](NC(=O)[C@H](CCCCN)NC(=O)CNC(=O)[C@H](CO)NC(=O)[C@H](Cc1ccc(O)c([N+](=O)[O-])c1)NC(C)=O)[C@@H](C)O)[C@@H](C)O)C(=O)N[C@@H](CC(=O)O)C(=O)N[C@@H](CC(C)C)C(=O)N[C@@H](CC(N)=O)C(=O)N[C@@H](CCCCN)C(=O)O [Peptide 17, Ac-nitroTyr-SGKTTHYFIDLN-K-OH] (Ac-[Tyr(3-NO2)]SGKTTHYFIDLNK-OH)
100.0%	100%	–	–	CC[C@H](C)[C@H](NC(=O)[C@H](Cc1ccccc1)NC(=O)[C@H](Cc1ccc(O)cc1)NC(=O)[C@H](Cc1c[nH]cn1)NC(=O)[C@@H](NC(=O)[C@@H](NC(=O)[C@H](CCCCN)NC(=O)CNC(=O)[C@H](CO)NC(=O)[C@H](Cc1ccc(O)c([N+](=O)[O-])c1)NC(C)=O)C(C)C)[C@@H](C)O)C(=O)N[C@@H](CC(=O)O)C(=O)N[C@@H](CC(C)C)C(=O)N[C@@H](CC(N)=O)C(=O)N[C@@H](CCCCN)C(=O)O [Peptide 18, Ac-nitroTyr-SGKVTHYFIDLN-K-OH] (Ac-[Tyr(3-NO2)]SGKVTHYFIDLNK-OH)
